Measurements: publication PMC12502592, “Therapeutic potential of flavonols in the treatment of JCPyV” (Microbiology Spectrum, 2025)

How the values were obtained:
JCPyV [1] = system: JCPyV; set-up: method as in PMID 26600871, PMID 21402853; settings: relative to cidofovir; cited from earlier work
SVG-A cells = assay: Viral ToxGlo toxicity assay in SVG-A cells; assay type: cell-based, human
Experimental: (§1) SVG-A cells were plated at 5,000 cells per well, and NHAs were plated at 10,000 per well in a Corning 96-well tissue culture-treated plate. The following day, the cells were treated with a twofold dilution series of either quercetin, myricetin, or fisetin, ranging from 20 to 0.15625 µM, in phenol-free media. SVG-A cells were incubated with drug for 72 h in the incubator at 37°C with 5% CO2. NHA cells were incubated with drug for 120 h at 37°C with 5% CO2 to match the exposure times for infection. After incubation, a luciferase-based Viral ToxGlo Assay (Promega) was added to each well according to the manufacturer’s protocol. Viral ToxGlo measures the amount of ATP activity present through a luminescent signal. The cells were incubated with Viral ToxGlo lytic reagent for 10 min at 37°C with 5% CO2. Lysed cell suspension was then transferred to an opaque plate, and luciferase activity was read on the Glomax Multi-detection System (Promega, 0.5 s integration time) and normalized to a vehicle control.

NHA cells = assay: Viral ToxGlo toxicity assay in NHA cells; assay type: cell-based, human
Experimental: as §1

JCPyV [2] = assay: JCPyV infection assay in SVG-A cells (VP1 indirect immunofluorescence); assay type: cell-based; settings: JC polyomavirus, 2 h pretreatment, MOI 10, drug maintained 72 h, normalized to DMSO
Experimental: (§2) SVG-A cells were plated at 5,000 cells per well, and NHAs were plated at 10,000 per well. The following day, the cells were treated with the above-described dose curve of either quercetin, fisetin, or myricetin, ranging from 10 to 0.15625 µM. A DMSO (vehicle) control that was volume matched to the highest volume of each flavonol was included. The plates were pretreated with drug for 2 h at 37°C with 5% CO2. Next, the cells were incubated in 1× MEM with purified JCPyV (MOI of 10) in the continued presence of either quercetin, myricetin, fisetin, or a DMSO vehicle control matched to the highest concentration of each flavonol. Plates were incubated for 2 h at 37°C with 5% CO2 and rocked every 15 min to ensure homogenous distribution of virus in each well. Virus-containing media were then aspirated and replaced with either quercetin, myricetin, fisetin, or a volume-matched DMSO control in complete media. SVG-A cells were incubated for 72 h in the incubator at 37°C with 5% CO2. Astrocytes were incubated for 120 h at 37°C with 5% CO2. Plates were fixed in 100% ice-cold methanol and quantified using indirect immunofluorescence staining for the late viral protein VP1.
(§3) To quantify the number of infected cells, SVG-A and NHA cells were fixed with ice-cold 100% methanol at −20°C for at least 15 min to permeabilize cells. The cells were rehydrated with 1× phosphate-buffered saline (PBS) for 15 min and rocked at room temperature. […] The cells were imaged on a Ti2-E Inverted Fluorescence Microscope (Nikon) using the 20× objective. For each plate, a random subset of 10 fields was chosen to image per well, and three wells were analyzed per condition. Images were analyzed using Elements High Content Imaging software (Nikon) to count total cells versus VP1+ cells.
(§4) A linear regression between successive points was used to calculate the half maximal inhibitory values (IC50) from the dose curves of each drug. […] Significance was calculated using Student’s two-tailed t-test in GraphPad Prism. […]

JCPyV [3] = assay: JCPyV infection assay in NHA cells (VP1 indirect immunofluorescence); assay type: cell-based; settings: JC polyomavirus, 2 h pretreatment, MOI 10, drug maintained 120 h, normalized to DMSO
Experimental: as §2, §3, §4

JCPyV [4] = assay: Infection time course in SVG-A cells; assay type: cell-based, JC polyomavirus; settings: 10 µM, added at -2, 0, 2 or 24 h relative to infection, VP1+ at 72 h post-infection
Experimental: (§5) SVG-A cells were plated at 5,000 cells per well, and NHAs were plated at 10,000 per well in a Corning 96-well tissue culture-treated plate. The following day, the cells were treated at the following four time points: 2 h before infection (−2 h; pretreatment), 0 h (co-treatment at the time of infection), 2 hs after infection (post treatment), or 24 h after infection (post-treatment). At the 2-h pretreatment time point, quercetin, myricetin, fisetin, or a volume-matched DMSO control was added in complete media. For all other time points, complete media were administered as a mock treatment. The plates were incubated for 2 h at 37°C and 5% CO2. At the 0-h time point, purified JCPyV (MOI of 10) in unsupplemented media was added to each of the time points, either alone or in the presence of drug, as appropriate for each treatment condition. In the −2 h and 0 h treated wells, quercetin, myricetin, fisetin, or a volume-matched DMSO control was added as co-treatment. All plates were infected with purified JCPyV at the same time, for 2 h at 37°C and 5% CO2. At the 2-h time point, the virus was aspirated and flavonols in complete media were added to the −2, 0, and 2 h time points. Complete media without drug or vehicle control was administered to the 24-h time point. Twenty-four hours after infection, flavonols were added to the 24-h time point, in complete media. SVG-A cells were incubated at 37°C and 5% CO2 for 72 h after infection, and NHA cells were incubated at 37°C and 5% CO2 for 120 h after infection. Plates were then stained and infection was quantified via indirect immunofluorescence.
(§6) To quantify the number of infected cells, SVG-A and NHA cells were fixed with ice-cold 100% methanol at −20°C for at least 15 min to permeabilize cells. […] The cells were imaged on a Ti2-E Inverted Fluorescence Microscope (Nikon) using the 20× objective. For each plate, a random subset of 10 fields was chosen to image per well, and three wells were analyzed per condition. Images were analyzed using Elements High Content Imaging software (Nikon) to count total cells versus VP1+ cells.

JCPyV [5] = assay: Infection time course in NHA cells; assay type: cell-based, JC polyomavirus; settings: added at -2, 0, 2 or 24 h relative to infection, VP1+ at 120 h post-infection
Experimental: as §5, §6

JCPyV [6] = assay: Viral spread assay in SVG-A cells; assay type: cell-based, JC polyomavirus; settings: 10 µM added 24 h post-infection, VP1+ at 3, 6 and 9 days post-infection, vs DMSO
Experimental: (§7) For the viral spread assay, the cells were plated at a density of 5,000 cells per well for SVG-A in complete MEM, or 10,000 cells per well for NHA in complete AM, and incubated overnight at 37°C with 5% CO2. The next day, the cells were infected with purified JCPyV (MOI of 10) for 2 h to establish an infection without the presence of drugs. After infection, JCPyV media were aspirated and plates were incubated with complete media as required for each cell type. One day post-infection, the cells were incubated with the highest nontoxic dose (for SVG-A: 10 µM quercetin, 10 µM myricetin, 10 µM fisetin; for NHA: 5 µM quercetin, 10 µM myricetin, 5 µM fisetin) or a volume-matched DMSO control. Plates were incubated at 37°C with 5% CO2 and infection was measured by indirect immunofluorescence quantification at 3, 6, and 9 days post-infection in SVG-As or 5, 10, and 15 days post-infection for NHAs. At every time point, the cells were either fixed in ice-cold methanol or were supplemented with an additional 50 µL of cell media that consisted of the matched concentration of quercetin, fisetin, myricetin, or DMSO vehicle control. Cell counts were obtained by counting the total number of cells in 10 random fields per well (3 wells total per replicate) on the Ti2-E Inverted Fluorescent Microscope (Nikon).
as §3, with “rocked at room temperature. Subsequent permeabilization was conducted with incubation in 1% Triton-X (USB) for 10 min with rocking” for “rocked”

JCPyV [7] = assay: Viral spread assay in NHA cells; assay type: cell-based, JC polyomavirus; settings: VP1+ at 5, 10 and 15 days post-infection, vs DMSO
Experimental: as §7
as §3, with “rocked at room temperature. Subsequent permeabilization was conducted with incubation in 1% Triton-X (USB) for 10 min with rocking” for “rocked”

[8] = set-up: method as in PMID 29317180; settings: amplification of hippocampal long-term potentiation; cited from earlier work
[9] = set-up: method as in PMID 14980703, PMID 28528183; settings: U251 cells; cited from earlier work

SMILES	concentration reducing JCPyV DNA copy number, fold smaller than cidofovir (JCPyV [1])	highest nontoxic dose (SVG-A cells; human, 72 h)	highest nontoxic dose (NHA cells; human, 120 h)	IC50 (JCPyV [2])	IC50 (JCPyV [3])	inhibition of JCPyV infection by time of addition (JCPyV [4])	inhibition of JCPyV infection by time of addition (JCPyV [5]; 5 µM)	inhibition of viral spread in established infection (JCPyV [6])	inhibition of viral spread in established infection (JCPyV [7]; 5 µM added 24 h post-infection)	crossing of the BBB in vivo [8]	highest nontoxic dose (SVG-A cells; SVG-A cells)	highest nontoxic dose (NHA cells; NHA cells)	inhibition of JCPyV infection by time of addition (JCPyV [5]; 10 µM)	inhibition of viral spread in established infection (JCPyV [7]; 10 µM added 24 h post-infection)	crossing of the BBB in in vitro models [9]
CCCCCCCCCCCCCCCCOCCCOP(=O)(O)CO[C@H](CO)Cn1ccc(N)nc1=O [Brincidofovir]	100 ×	–	–	–	–	–	–	–	–	–	–	–	–	–	–
O=c1c(O)c(-c2ccc(O)c(O)c2)oc2cc(O)ccc12 [fisetin]	–	10 µM	5 µM	5.76 µM	3.72 µM	inhibited infection at all time points up to and including 24 h post-infection	maintained their ability to inhibit infection even when administered at 24 h post-infection	inhibit viral spread in SVG-A cells at 3, 6, and 9 days post-infection	significantly reduce JCPyV infection at all time points	found to cross the BBB in vivo	–	–	–	–	–
O=c1c(O)c(-c2cc(O)c(O)c(O)c2)oc2cc(O)cc(O)c12 [myricetin]	–	–	–	8.07 µM	4.47 µM	effective only when given 2 h before infection or at the time of infection	–	no significant reduction in viral spread compared to DMSO control	–	–	10 µM	10 µM	lost by 2 h post-infection	without effect	–
O=c1c(O)c(-c2ccc(O)c(O)c2)oc2cc(O)cc(O)c12 [quercetin]	–	–	–	6.04 µM	2.51 µM	inhibited infection at all time points up to and including 24 h post-infection	maintained their ability to inhibit infection even when administered at 24 h post-infection	inhibit viral spread in SVG-A cells at 3, 6, and 9 days post-infection	significantly reduce JCPyV infection at all time points	–	10 µM	5 µM	–	–	up to 65%
